Source: ChEMBL document CHEMBL5550098, “Discovery of N-benzylbenzamide-based allosteric inhibitors of Aurora kinase A” (Bioorg Med Chem, 2024)
Values after ≈ are worked out from the molar mass of the structure shown. Active and inactive are the calls of the source. The calls are words filed in the database; no cut-off is given here.

Legend:
Aurora kinase A = target: T1, Aurora kinase A (Homo sapiens, UniProt O14965); assay: Allosteric inhibition of AurkA (unknown origin)
T1 sequence (O14965 whole entry): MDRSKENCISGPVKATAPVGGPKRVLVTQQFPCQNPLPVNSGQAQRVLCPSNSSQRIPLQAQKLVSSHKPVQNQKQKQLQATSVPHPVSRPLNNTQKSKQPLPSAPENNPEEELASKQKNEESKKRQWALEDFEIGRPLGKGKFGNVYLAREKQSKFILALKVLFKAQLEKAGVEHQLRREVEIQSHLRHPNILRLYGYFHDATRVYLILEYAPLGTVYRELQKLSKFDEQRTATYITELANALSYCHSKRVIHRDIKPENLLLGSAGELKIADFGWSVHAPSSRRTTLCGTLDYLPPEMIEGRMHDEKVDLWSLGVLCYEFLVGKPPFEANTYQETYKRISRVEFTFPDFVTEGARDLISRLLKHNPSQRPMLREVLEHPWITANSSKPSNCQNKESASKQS

HCT-116 [1] = assay: Induction of cell cycle arrest at G2/M phase in human HCT-116 cells at 100 uM measured after 48 hrs by RNase/PI staining based flow cytometry analysis; type: functional
HT-29 [2] = assay: Downregulation of phospho-histone H3 level at Ser10 residue in human HT-29 cells at 20 uM measured at 12 to 24 hrs by Western blot analysis; type: functional, cell-based; settings: time 12-24 hrs
HeLa [3] = assay: Induction of cell cycle arrest in human HeLa cells at 100 uM measured after 48 hrs by RNase/PI staining based flow cytometry analysis; type: functional
HeLa [4] = assay: Inhibition of DNA replication during G1 to S transition in nocodazole synchronized human HeLa cells assessed as reduction in Edu content in new synthesized DNA by measuring Edu positive cells at 100 uM measured after 9 hrs by Edu incorporation based flow cytometry analysis (reference value: 16.8%); type: functional; parameters: scale not given: the % may be the effect or the level left
HeLa [5] = assay: cells; settings: Homo sapiens, 72 h
A549 = assay: Induction of cell cycle arrest in human A549 cells assessed as G1/S phase transition at 100 uM measured after 48 hrs by RNase/PI staining based flow cytometry analysis; type: functional
HCT-116 [6] = assay: Downregulation of phospho-histone H3 level at Ser10 residue in human HCT-116 cells at 20 uM measured at 12 to 24 hrs by Western blot analysis; type: functional, cell-based; settings: time 12-24 hrs
[7] = Permeability of compound at 5 uM by PAMPA assay; type: ADME; settings: read-out: permeability
HCT-116 [8] = assay: Downregulation of phospho-histone H3 level at Ser10 residue in human HCT-116 cells at 20 uM measured at 48 hrs by Western blot analysis; type: functional, cell-based
HeLa [9] = assay: Inhibition of DNA replication during G1 to S transition in nocodazole synchronized human HeLa cells assessed as reduction in Edu content in new synthesized DNA by measuring Edu positive cells at 100 uM measured after 8 hrs by Edu incorporation based flow cytometry analysis (reference value: 19.7%); type: functional; parameters: scale not given: the % may be the effect or the level left
NCI-H358 = assay: Induction of cell cycle arrest in human NCI-H358 cells assessed as G1/S phase transition at 100 uM measured after 48 hrs by RNase/PI staining based flow cytometry analysis; type: functional
[10] = Aqueous solubility of compound at pH 7.4; type: physicochemical
HT-29 [11] = assay: Induction of cell cycle arrest at G2/M phase in human HT-29 cells at 100 uM measured after 48 hrs by RNase/PI staining based flow cytometry analysis; type: functional
PANC-1 = assay: Induction of cell cycle arrest in human PANC-1 cells at 100 uM measured after 48 hrs by RNase/PI staining based flow cytometry analysis; type: functional
HT-29 [12] = assay: Downregulation of phospho-histone H3 level at Ser10 residue in human HT-29 cells at 20 uM measured at 48 hrs by Western blot analysis; type: functional, cell-based
HeLa [13] = assay: Antiproliferative activity against human HeLa cells assessed as inhibition of cell growth incubated for 72 hrs in absence of PHA-767491 by celltiter-glo assay; type: functional
HeLa [14] = assay: Inhibition of DNA replication during G1 to S transition in nocodazole synchronized human HeLa cells assessed as reduction in Edu content in new synthesized DNA by measuring Edu positive cells at 1 uM measured after 9 hrs by Edu incorporation based flow cytometry analysis (reference value: 16.8%); type: functional, cell-based; parameters: scale not given: the % may be the effect or the level left
HeLa [15] = assay: Inhibition of DNA replication during G1 to S transition in nocodazole synchronized human HeLa cells assessed as reduction in Edu content in new synthesized DNA by measuring Edu positive cells at 1 uM measured after 8 hrs by Edu incorporation based flow cytometry analysis (reference value: 19.7%); type: functional, cell-based; parameters: scale not given: the % may be the effect or the level left

## COc1ccc(CNC(=O)C(C)Oc2ccc3c(c2)c2ccnc4c5ccccc5c(=O)n3c24)cc1 (stereo unspecified)
Aurora kinase A
  IC50: < 20 µM

## CC1=C(C(=O)Nc2ccc(F)cc2F)[C@H](c2cccnc2)C2=C(C[C@@H](c3ccccc3)CC2=O)N1
Aurora kinase A
  IC50: < 20 µM

## CC(Oc1ccc2c(c1)c1ccnc3c4ccccc4c(=O)n2c13)C(=O)NCc1ccc2c(c1)OCO2 (stereo unspecified)
Aurora kinase A
  IC50: < 20 µM

## O=C(NCc1ccc2c(c1)OCO2)c1cccc(-c2ccncc2)c1
HCT-116 [1]
  Activity: Active
HT-29 [2]
  Activity: inactive
HeLa [3]
  Activity: inactive
HeLa [4]
  Activity: 1.6%
HeLa [5]
  GI50: 14 µM
A549
  Activity: Active
HCT-116 [6]
  Activity: inactive
[7]
  Papp at 5 µM: 65.5 ×10⁻⁶ cm/s
HCT-116 [8]
  Activity: Active
HeLa [9]
  Activity: 7%
NCI-H358
  Activity: Active
[10]
  solubility: 161 µM (≈ 53.5 µg/mL)
HT-29 [11]
  Activity: Active
PANC-1
  Activity: inactive
HT-29 [12]
  Activity: Active
HeLa [13]
  GI50: 71.7 µM

## Cc1cc(Nc2cc(N3CCN(C)CC3)nc(Sc3ccc(NC(=O)C4CC4)cc3)n2)n[nH]1
HeLa [14]
  Activity: 22.1%
HeLa [15]
  Activity: 21.7%
